According to PubChem BioAssay AID2060489 (Molecular Pharmacology Branch, DTP, NCI, 2025):
pIC50: −log10 of the molar value.

System: 922993-354-T-J3-PDC complex spheroids, viability
Test: Anticancer human tumor 922993-354-T-J3-PDC patient-derived endometrial carcinoma cell line growth inhibition [GQUAD]
Conditions: for pIC50: curve of first compound; for viability, T/C: stronger effect = lower value
Outline: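 Tumor cells were grown as complex spheroids with HUVEC endothelial cells and mesenchymal stem cells as stroma. G-quadruplex stabilizers were combined with targeted agents over half-log dilutions from near the clinical Cmax, or from 10 microM.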

[1] = second compound 0.0316 µM, first compound 0.0316 µM
[2] = second compound 0.0316 µM, first compound 0.1 µM
[3] = second compound 0.0316 µM, first compound 0.316 µM
[4] = second compound 0.0316 µM, first compound 1 µM
[5] = second compound 0.0316 µM, first compound 3.16 µM
[6] = second compound 0.0316 µM, first compound 10 µM
[7] = second compound 0.1 µM, first compound 0.0316 µM
[8] = second compound 0.1 µM, first compound 0.1 µM
[9] = second compound 0.1 µM, first compound 0.316 µM
[10] = second compound 0.1 µM, first compound 1 µM
[11] = second compound 0.1 µM, first compound 3.16 µM
[12] = second compound 0.1 µM, first compound 10 µM
[13] = second compound 0.316 µM, first compound 0.0316 µM
[14] = second compound 0.316 µM, first compound 0.1 µM
[15] = second compound 0.316 µM, first compound 0.316 µM
[16] = second compound 0.316 µM, first compound 1 µM
[17] = second compound 0.316 µM, first compound 3.16 µM
[18] = second compound 0.316 µM, first compound 10 µM
[19] = second compound 1 µM, first compound 0.0316 µM
[20] = second compound 1 µM, first compound 0.1 µM
[21] = second compound 1 µM, first compound 0.316 µM
[22] = second compound 1 µM, first compound 1 µM
[23] = second compound 1 µM, first compound 3.16 µM
[24] = second compound 1 µM, first compound 10 µM
[25] = second compound 3.16 µM, first compound 0.0316 µM
[26] = second compound 3.16 µM, first compound 0.1 µM
[27] = second compound 3.16 µM, first compound 0.316 µM
[28] = second compound 3.16 µM, first compound 1 µM
[29] = second compound 3.16 µM, first compound 3.16 µM
[30] = second compound 3.16 µM, first compound 10 µM
[31] = second compound 10 µM, first compound 0.0316 µM
[32] = second compound 10 µM, first compound 0.1 µM
[33] = second compound 10 µM, first compound 0.316 µM
[34] = second compound 10 µM, first compound 1 µM
[35] = second compound 10 µM, first compound 3.16 µM
[36] = second compound 10 µM, first compound 10 µM
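Further: spheroids exposed to compounds for seven days.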
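Wherever viability, T/C is given: 100% = DMSO vehicle control viability.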

## COc1cc(C2c3cc4c(cc3C(OC3OC5COC(C)OC5C(O)C3O)C3COC(=O)C23)OCO4)cc(OC)c1O (stereo not drawn) + Cc1cnc(CNC(=O)c2c(=O)c3ccc(N4CCCN(C)CC4)nc3n3c2sc2ccccc23)cn1
Second compound 0.0316 µM
  pIC50: < 5.00
Second compound 0.1 µM
  pIC50: < 5.00
Second compound 0.316 µM
  pIC50: > 7.50
Second compound 1 µM
  pIC50: > 7.50
Second compound 3.16 µM
  pIC50: > 7.50
Second compound 10 µM
  pIC50: > 7.50
[1]
  viability, T/C: 82.3%
[2]
  viability, T/C: 60%
[3]
  viability, T/C: 60.5%
[4]
  viability, T/C: 74.5%
[5]
  viability, T/C: 50.9%
[6]
  viability, T/C: 49.9%
[7]
  viability, T/C: 62.3%
[8]
  viability, T/C: 59.1%
[9]
  viability, T/C: 53.8%
[10]
  viability, T/C: 63.6%
[11]
  viability, T/C: 62.8%
[12]
  viability, T/C: 39.9%
[13]
  viability, T/C: 44.1%
[14]
  viability, T/C: 53.2%
[15]
  viability, T/C: 38.6%
[16]
  viability, T/C: 49.7%
[17]
  viability, T/C: 41.6%
[18]
  viability, T/C: 34.3%
[19]
  viability, T/C: 46.8%
[20]
  viability, T/C: 39.9%
[21]
  viability, T/C: 49.6%
[22]
  viability, T/C: 36.1%
[23]
  viability, T/C: 36%
[24]
  viability, T/C: 43.4%
[25]
  viability, T/C: 40.6%
[26]
  viability, T/C: 47%
[27]
  viability, T/C: 39.1%
[28]
  viability, T/C: 46.6%
[29]
  viability, T/C: 52.4%
[30]
  viability, T/C: 48.2%
[31]
  viability, T/C: 47.9%
[32]
  viability, T/C: 50.3%
[33]
  viability, T/C: 45.4%
[34]
  viability, T/C: 38.2%
[35]
  viability, T/C: 43.4%
[36]
  viability, T/C: 41%

## C=CCn1c(=O)c2cnc(Nc3ccc(N4CCN(C)CC4)cc3)nc2n1-c1cccc(C(C)(C)O)n1 + CN(C)c1ccc(Nc2c3ccc(NC(=O)CCN4CCCC4)cc3nc3cc(NC(=O)CCN4CCCC4)ccc23)cc1
Second compound 0.0316 µM
  pIC50: 5.38
Second compound 0.1 µM
  pIC50: 5.38
Second compound 0.316 µM
  pIC50: 5.36
Second compound 1 µM
  pIC50: 5.28
Second compound 3.16 µM
  pIC50: 5.29
Second compound 10 µM
  pIC50: 5.19
[1]
  viability, T/C: 103%
[2]
  viability, T/C: 80.9%
[3]
  viability, T/C: 87.4%
[4]
  viability, T/C: 74.5%
[5]
  viability, T/C: 67.7%
[6]
  viability, T/C: 12.4%
[7]
  viability, T/C: 95.3%
[8]
  viability, T/C: 87.1%
[9]
  viability, T/C: 88%
[10]
  viability, T/C: 88.6%
[11]
  viability, T/C: 61.8%
[12]
  viability, T/C: 13.9%
[13]
  viability, T/C: 93.6%
[14]
  viability, T/C: 101%
[15]
  viability, T/C: 73.2%
[16]
  viability, T/C: 81.8%
[17]
  viability, T/C: 65.6%
[18]
  viability, T/C: 16.9%
[19]
  viability, T/C: 110%
[20]
  viability, T/C: 121%
[21]
  viability, T/C: 95.3%
[22]
  viability, T/C: 96.5%
[23]
  viability, T/C: 79.1%
[24]
  viability, T/C: 17%
[25]
  viability, T/C: 100%
[26]
  viability, T/C: 85.5%
[27]
  viability, T/C: 113%
[28]
  viability, T/C: 104%
[29]
  viability, T/C: 74.6%
[30]
  viability, T/C: 16.6%
[31]
  viability, T/C: 111%
[32]
  viability, T/C: 109%
[33]
  viability, T/C: 108%
[34]
  viability, T/C: 110%
[35]
  viability, T/C: 87.2%
[36]
  viability, T/C: 28.2%

## CC[C@@]1(O)C(=O)OCc2c1cc1n(c2=O)Cc2cc3c(CN(C)C)c(O)ccc3nc2-1 + Cc1[nH]c2ccc(F)cc2c1-c1nc2c3cccnc3c3ncccc3c2[nH]1
Second compound 0.0316 µM
  pIC50: < 6.50
Second compound 0.1 µM
  pIC50: < 6.50
Second compound 0.316 µM
  pIC50: < 6.50
Second compound 1 µM
  pIC50: 6.51
Second compound 3.16 µM
  pIC50: < 6.50
Second compound 10 µM
  pIC50: 6.55
Second compound 0.0316 µM, first compound 0.000999 µM
  viability, T/C: 91.8%
Second compound 0.0316 µM, first compound 0.00316 µM
  viability, T/C: 95.9%
Second compound 0.0316 µM, first compound 0.00999 µM
  viability, T/C: 109%
[1]
  viability, T/C: 105%
Second compound 0.0316 µM, first compound 0.0999 µM
  viability, T/C: 82.4%
[3]
  viability, T/C: 57.1%
Second compound 0.1 µM, first compound 0.000999 µM
  viability, T/C: 94%
Second compound 0.1 µM, first compound 0.00316 µM
  viability, T/C: 98.1%
Second compound 0.1 µM, first compound 0.00999 µM
  viability, T/C: 79.3%
[7]
  viability, T/C: 104%
Second compound 0.1 µM, first compound 0.0999 µM
  viability, T/C: 77%
[9]
  viability, T/C: 55.6%
Second compound 0.316 µM, first compound 0.000999 µM
  viability, T/C: 125%
Second compound 0.316 µM, first compound 0.00316 µM
  viability, T/C: 84.3%
Second compound 0.316 µM, first compound 0.00999 µM
  viability, T/C: 103%
[13]
  viability, T/C: 92.1%
Second compound 0.316 µM, first compound 0.0999 µM
  viability, T/C: 97.5%
[15]
  viability, T/C: 52.4%
Second compound 1 µM, first compound 0.000999 µM
  viability, T/C: 97.1%
Second compound 1 µM, first compound 0.00316 µM
  viability, T/C: 106%
Second compound 1 µM, first compound 0.00999 µM
  viability, T/C: 89.8%
[19]
  viability, T/C: 104%
Second compound 1 µM, first compound 0.0999 µM
  viability, T/C: 90.6%
[21]
  viability, T/C: 48.7%
Second compound 3.16 µM, first compound 0.000999 µM
  viability, T/C: 74.5%
Second compound 3.16 µM, first compound 0.00316 µM
  viability, T/C: 108%
Second compound 3.16 µM, first compound 0.00999 µM
  viability, T/C: 93.1%
[25]
  viability, T/C: 93.3%
Second compound 3.16 µM, first compound 0.0999 µM
  viability, T/C: 89.5%
[27]
  viability, T/C: 67.4%
Second compound 10 µM, first compound 0.000999 µM
  viability, T/C: 134%
Second compound 10 µM, first compound 0.00316 µM
  viability, T/C: 91.1%
Second compound 10 µM, first compound 0.00999 µM
  viability, T/C: 109%
[31]
  viability, T/C: 97.2%
Second compound 10 µM, first compound 0.0999 µM
  viability, T/C: 74.6%
[33]
  viability, T/C: 45.2%

## O=C(NO)c1cnc(N2CCN(S(=O)(=O)c3ccc4ccccc4c3)CC2)nc1 + Cc1[nH]c2ccc(F)cc2c1-c1nc2c3cccnc3c3ncccc3c2[nH]1
Second compound 0.0316 µM
  pIC50: 6.39
Second compound 0.1 µM
  pIC50: 6.27
Second compound 0.316 µM
  pIC50: 6.11
Second compound 1 µM
  pIC50: 6.06
Second compound 3.16 µM
  pIC50: 5.95
Second compound 10 µM
  pIC50: 6.04
[1]
  viability, T/C: 116%
[2]
  viability, T/C: 89.1%
[3]
  viability, T/C: 52.9%
[4]
  viability, T/C: 34.6%
[5]
  viability, T/C: 3.09%
[6]
  viability, T/C: 0.42%
[7]
  viability, T/C: 114%
[8]
  viability, T/C: 89.5%
[9]
  viability, T/C: 65%
[10]
  viability, T/C: 38.6%
[11]
  viability, T/C: 3.39%
[12]
  viability, T/C: 0.48%
[13]
  viability, T/C: 93.2%
[14]
  viability, T/C: 95.9%
[15]
  viability, T/C: 72.2%
[16]
  viability, T/C: 46.6%
[17]
  viability, T/C: 4.7%
[18]
  viability, T/C: 0.61%
[19]
  viability, T/C: 84.2%
[20]
  viability, T/C: 90.3%
[21]
  viability, T/C: 68.7%
[22]
  viability, T/C: 51.2%
[23]
  viability, T/C: 6.64%
[24]
  viability, T/C: 0.62%
[25]
  viability, T/C: 75.7%
[26]
  viability, T/C: 86.5%
[27]
  viability, T/C: 91.1%
[28]
  viability, T/C: 51.4%
[29]
  viability, T/C: 15%
[30]
  viability, T/C: 0.64%
[31]
  viability, T/C: 82.8%
[32]
  viability, T/C: 101%
[33]
  viability, T/C: 74.7%
[34]
  viability, T/C: 48.2%
[35]
  viability, T/C: 14.7%
[36]
  viability, T/C: 0.76%
